In patent US20110009429A1, “HETEROCYCLIC COMPOUNDS AS INHIBITORS OF CXCR2” (priority 2008, published 2011):
pIC50: −log10 of the molar value.

target: T1, human CXCR2 receptor (Homo sapiens, UniProt P25025); assay: [35S]-GTPγS binding assay for human CXCR2 receptor using SPA technology; type: biochemical; conditions: CHO-K1 membranes expressing human CXCR2 receptors; 100 nM IL-8 stimulated [35S]GTPγS binding; read-out: IC50 values in the [35S]-GPTγS binding assay
T1 construct: purchased Biosignal Packard Inc; host or cells: CHO-K1 membranes
T1 sequence (P25025 1-360): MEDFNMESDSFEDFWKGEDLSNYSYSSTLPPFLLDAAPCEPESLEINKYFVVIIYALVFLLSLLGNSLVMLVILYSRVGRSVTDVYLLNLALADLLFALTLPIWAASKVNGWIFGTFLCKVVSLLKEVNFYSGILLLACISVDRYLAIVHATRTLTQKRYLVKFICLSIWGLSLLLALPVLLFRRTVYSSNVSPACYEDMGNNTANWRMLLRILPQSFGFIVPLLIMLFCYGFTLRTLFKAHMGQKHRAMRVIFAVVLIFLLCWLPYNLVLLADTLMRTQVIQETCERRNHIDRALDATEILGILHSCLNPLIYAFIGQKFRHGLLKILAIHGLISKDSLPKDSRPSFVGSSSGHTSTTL
From the text: [^35S]-GTPγS Binding Assay for Human CXCR2 Receptor Using SPA Technology
[^35S]-GTPγS (with specific activity 1082 Ci/mmol) and wheat germ agglutinin poly vinyl toluene scintillation proximity beads are purchased from Amersham Pharmacia Biotech. The Chinese hamster ovary cell (CHO-K1) membranes expressing human CXCR2 receptors are purchased from Biosignal Packard Inc. All other chemicals are of analytical grade. White non-binding surface 96 well Optiplate™ microplates are obtained from Packard. Recombinant human IL-8 is synthesised, cloned and expressed in Escherichia coli as described previously (Lindley I, et al., Proc. Natl. Acad. Sci., 1988, 85(23):9199). The assay is performed in duplicate in 96 well Optiplate™ microplate in a final volume of 250 μl per well. Compounds are diluted in DMSO (0.5% final concentration) and incubated in 20 mM HEPES buffer pH 7.4 containing 10 mM MgCl2, 100 mM NaCl, 1 mM EDTA plus 100 nM IL-8, 50 μM GDP and 500 pM [^35S]GTPγS per well. SPA beads (1 mg/well final concentration) were pre-mixed with the membranes (10 μg/well final concentration) in assay buffer: 20 mM HEPES buffer pH 7.4 containing 10 mM MgCl2, 100 mM NaCl, 1 mM EDTA. The bead membrane mixture is added to each well, plates are sealed and incubated at room temperature for 60 minutes. The plate is centrifuged and read on Packard TopCount™ scintillation counter, program [^35S dpm] for 1 min/well. Data are expressed as the % response to 100 nM IL-8 minus basal.

| SMILES | pIC50 |
| --- | --- |
| Oc1cc(COc2ccccc2Cl)nc2cc(-c3ccco3)nn12 [Example 23, 5-(2-Chloro-phenoxymethyl)-2-furan-2-yl-pyrazolo[1,5-a]pyrimidin-7-ol] | 5.75 |
| Cc1cc2nc(CCc3ccccc3F)cc(O)n2n1 [Example 1, 5-[2-(2-Fluoro-phenyl)-ethyl]-2-methyl-pyrazolo[1,5-a]pyrimidin-7-ol] | 5.53 |
| Cc1cc2nc(COc3ccccc3Cl)cc(O)n2n1 [Example 10, 5-(2-Chloro-phenoxymethyl)-2-methyl-pyrazolo[1,5-a]pyrimidin-7-ol] | 5.31 |
| Oc1cc(COc2cccc(F)c2F)nc2cc(-c3ccco3)nn12 [Example 22, 5-(2,3-Difluoro-phenoxymethyl)-2-furan-2-yl-pyrazolo[1,5-a]pyrimidin-7-ol] | 5.76 |
| Oc1cc(COc2c(F)cccc2F)nc2cc(-c3ccco3)nn12 [Example 14, 5-(2,6-Difluoro-phenoxymethyl)-2-furan-2-yl-pyrazolo[1,5-a]pyrimidin-7-ol] | 5.42 |

Now those with a higher pIC50, led by results:

| pIC50 | SMILES |
| --- | --- |
| 6.66 | Oc1cc(CCc2cccc(F)c2F)nc2cc(-c3ccco3)nn12 [Example 7, 5-[2-(2,3-Difluoro-phenyl)-ethyl]-2-furan-2-yl-pyrazolo[1,5-a]pyrimidin-7-ol] |
| 6.18 | Oc1cc(CCc2ccccc2Cl)nc2cc(Cc3ccccc3)nn12 [Example 4, 2-Benzyl-5-[2-(2-chloro-phenyl)-ethyl]-pyrazolo[1,5-a]pyrimidin-7-ol] |
| 6.00 | Oc1cc(COc2cccnc2Cl)nc2cc(-c3ccco3)nn12 [Example 17, 5-(2-Chloro-pyridin-3-yloxymethyl)-2-furan-2-yl-pyrazolo[1,5-a]pyrimidin-7-ol] |
